The text below walks through data of patent publication US11958861B2, “Spirocyclic lactams as JAK2 V617F inhibitors” (Incyte Corporation, priority 2021, dated 2024).

For test [1], the target named is T1, pseudo-kinase domain (JH2, amino-acids 536-812) of human Wild Type JAK2 (Homo sapiens, UniProt O60674, F794H/W659A/W777A).
T1 construct: pseudo-kinase domain (JH2, amino-acids 536-812 with 3 surface mutations W659A, W777A, F794H); purchased BPS Bioscience 79463; host or cells: baculovirus expression system
T1 sequence (O60674 536-812 W659A/W777A/F794H): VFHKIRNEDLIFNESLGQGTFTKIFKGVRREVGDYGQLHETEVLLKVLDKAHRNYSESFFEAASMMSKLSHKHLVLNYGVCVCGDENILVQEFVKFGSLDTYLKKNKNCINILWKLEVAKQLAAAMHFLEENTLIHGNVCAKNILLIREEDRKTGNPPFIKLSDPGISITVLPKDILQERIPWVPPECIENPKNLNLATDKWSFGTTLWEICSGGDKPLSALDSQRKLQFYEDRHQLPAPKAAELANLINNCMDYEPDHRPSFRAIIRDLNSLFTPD
Briefly: JAK2 LanthaScreen JH2-WT Binding Assay. Particulars: 1 hour at 25° C. The essentials:
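Compounds, serially diluted, were mixed with 0.145 nM JH2 domain, 50 nM tracer and 0.25 nM streptavidin-Tb cryptate, then incubated 1 hour at 25° C before LanthaScreen reading. Wells containing 2 mM ATP defined non-specific binding. Four-parameter dose-response curves gave IC50.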
Background: TR-FRET usually uses a lanthanide donor and a delayed reading to cut background.

For test [2], the target named is T2, pseudo-kinase domain (JH2, amino-acids 536-812) of human V617F mutant JAK2 (Homo sapiens, UniProt O60674, F794H/V617F/W659A/W777A).
T2 construct: pseudo-kinase domain (JH2, amino-acids 536-812 with 3 surface mutations W659A, W777A, F794H); purchased BPS Bioscience 79498; host or cells: baculovirus expression system
T2 sequence (O60674 536-812 V617F/W659A/W777A/F794H): as the sequence (O60674 536-812 W659A/W777A/F794H) above, with V82F counted along it
Put plainly: JAK2 LanthaScreen JH2-V617F Binding Assay. The conditions noted are these: 1 hour at 25° C. The essentials: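 Biotinylated His-Avi-tagged JH2 protein was baculovirus-expressed and used at 0.26 nM. It was incubated with compound, 50 nM fluorescent JH2 tracer and 0.25 nM streptavidin-Tb for 1 h at 25 °C in pH 7.5 Tris buffer with MgCl2, BSA, DTT. Non-specific binding was defined with 2 mM ATP. IC50 came from four-parameter fits of TR-FRET signal.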

Test [3] addresses T3, catalytic domain (JH1, amino acids 808-1132) of human JAK2 (Homo sapiens, UniProt O60674).
T3 construct: catalytic domain (JH1, amino acids 808-1132) of human JAK2; His (N); purchased BPS Bioscience 40450; host or cells: baculovirus expression system
Briefly: JAK2 HTRF Enzyme Activity Assay. The conditions noted are these: ATP 30 μM, read-out: ENZ 30UMATP. Type of test: biochemical. The method in brief: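 His-tagged JAK2 JH1 from baculovirus, 0.015 nM, incubated with compound, ATP at 30 μM or 1 mM and 500 nM biotinylated peptide, pH 7.5, 60 min at 25° C. HTRF read-out via Eu-anti-phosphotyrosine and streptavidin-APC after EDTA stop; IC50 from four-parameter dose-response fit.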

Test [4] has as its target T4, catalytic domain (JH1, amino acids 826-1132) of human JAK2 (Homo sapiens, UniProt O60674).
T4 construct: catalytic domain (JH1, amino acids 826-1132) of human JAK2; purchased Carna Biosciences 08-445-20N; host or cells: baculovirus expression system
Briefly: JAK2 LanthaScreen JH1 Binding Assay. The conditions noted are these: 2 hours at 25° C. The essentials:
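FLAG-tagged biotinylated JAK2 JH1 (1.5 nM) incubated with compounds, 50 nM fluorescent tracer and 0.5 nM streptavidin-Tb in Tris pH 7.5 buffer with MgCl2, BSA, DTT, 2 h at 25 °C.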

Counter-ions that a name gives are not always drawn.

T3 sequence (O60674 808-1132): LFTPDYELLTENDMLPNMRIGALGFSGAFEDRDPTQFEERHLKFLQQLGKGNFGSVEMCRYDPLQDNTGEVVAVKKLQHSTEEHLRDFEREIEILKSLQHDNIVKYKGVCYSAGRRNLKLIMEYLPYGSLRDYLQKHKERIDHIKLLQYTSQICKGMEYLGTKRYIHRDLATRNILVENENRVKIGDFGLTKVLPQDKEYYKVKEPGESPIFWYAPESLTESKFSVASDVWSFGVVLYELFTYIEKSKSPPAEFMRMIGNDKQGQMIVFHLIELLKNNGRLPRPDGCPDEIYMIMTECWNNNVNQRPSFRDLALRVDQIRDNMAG
T4 sequence (O60674 826-1132): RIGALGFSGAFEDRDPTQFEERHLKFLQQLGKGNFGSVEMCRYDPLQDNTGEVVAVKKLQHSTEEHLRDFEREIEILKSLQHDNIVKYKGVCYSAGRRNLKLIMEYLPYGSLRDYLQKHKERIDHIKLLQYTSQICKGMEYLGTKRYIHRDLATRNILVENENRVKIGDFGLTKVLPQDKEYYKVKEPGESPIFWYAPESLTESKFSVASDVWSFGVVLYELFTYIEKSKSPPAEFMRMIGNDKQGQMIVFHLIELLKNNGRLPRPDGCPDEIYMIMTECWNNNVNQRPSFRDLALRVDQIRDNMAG

Consider `CCS(=O)(=O)N1CCC[C@@]2(CC1)C(=O)N(C)c1cnc3[nH]c(-c4cnn(C(C)C)c4)c(-c4ccc5c(cnn5C)c4)c3c12` (single isomer, unassigned) [Example 53b], for which the IC50 was no more than 100 nM in test [1], no more than 100 nM in test [2], 100 to 500 nM in test [3] and 100 to 500 nM in test [4].

In the case of `CN1C(=O)[C@]2(CCN(CC3(CC#N)CC3)C2)c2c1cnc1[nH]c(-c3cnn(C)c3)c(-c3ccc4c(cnn4C)c3)c21` (single isomer, unassigned) [Example 65], the IC50 was no more than 100 nM in test [1], no more than 100 nM in test [2], greater than 2500 nM in test [3] and greater than 2500 nM in test [4].

Consider `CN1C(=O)[C@@]2(CCN(CC3(CC#N)CC3)C2)c2c1cnc1[nH]c(-c3cnn(C)c3)c(-c3ccc4c(cnn4C)c3)c21` (single isomer, unassigned) [Example 66], for which the IC50 in test [1] was no more than 100 nM; in test [2], no more than 100 nM; in test [3] it was 500 to 1250 nM; in test [4], 500 to 1250 nM.

For the compound `CO[C@H]1CC[C@@](CC#N)(N2CCC3(CC2)C(=O)N(C)c2cnc4[nH]c(-c5cnn(C)c5)c(-c5ccc6c(cnn6C)c5)c4c23)CC1` (single isomer, unassigned) [Example 75a, 2-(4-Methoxy-1-(6-methyl-1-(1-methyl-1H-indazol-5-yl)-2-(1-methyl-1H-pyrazol-4-yl)-7-oxo-6,7-dihydro-3H-spiro[dipyrrolo[2,3-b:3′,2′-d]pyridine-8,4′-piperidin]-1′-yl)cyclohexyl)acetonitrile], the IC50 was no more than 100 nM in test [1], no more than 100 nM in test [2], 100 to 500 nM in test [3] and 100 to 500 nM in test [4].

In the case of `[2H]C([2H])([2H])n1ncc2cc(-c3c(-c4cnn(C)c4)[nH]c4ncc5c(c34)C3(CCN([C@](C)(CC#N)COC)CC3)C(=O)N5C)ccc21` (single isomer, unassigned) [Example 80a], the IC50 was no more than 100 nM in test [1], no more than 100 nM in test [2], 1250 to 2500 nM in test [3] and 1250 to 2500 nM in test [4].

On to `[2H]C([2H])([2H])n1ncc2cc(-c3c(-c4cnn(C)c4)[nH]c4ncc5c(c34)C3(CCN([C@@](C)(CC#N)COC)CC3)C(=O)N5C)ccc21` (single isomer, unassigned) [Example 80b], for which the IC50 in test [1] was no more than 100 nM; in test [2] it was no more than 100 nM; in test [3] it was 500 to 1250 nM; in test [4], 500 to 1250 nM.

In the case of `[2H]C([2H])([2H])N1C(=O)C2(CCCN(S(=O)(=O)C3(C)CC3)CC2)c2c1cnc1[nH]c(-c3cnn(C(C)C)c3)c(-c3ccc4c(cnn4C)c3)c21` (single isomer, unassigned) [Example 103, 2′-(1-Isopropyl-1H-pyrazol-4-yl)-6′-(methyl-d3)-1′-(1-methyl-1H-indazol-5-yl)-1-((1-methylcyclopropyl)sulfonyl)-3′,6′-dihydro-7′H-spiro[azepane-4,8′-dipyrrolo[2,3-b:3′,2′-d]pyridin]-7′-one, trifluoroacetate salt], the IC50 in test [1] was no more than 100 nM; in test [2], no more than 100 nM; in test [3], 500 to 1250 nM; in test [4], 100 to 500 nM.

As for `CN1C(=O)C2(CCOCC2)c2c1cnc1[nH]c(-c3ccc(CN4CCC(S(C)(=O)=O)CC4)cc3)c(-c3ccccc3)c21` [Example 1, 6-Methyl-2-(4-((4-(methylsulfonyl)piperidin-1-yl)methyl)phenyl)-1-phenyl-2′,3,3′,5′,6,6′-hexahydro-7H-spiro[dipyrrolo[2,3-b:3′,2′-d]pyridine-8,4′-pyran]-7-one], the IC50 in test [1] is no more than 100 nM; in test [2], no more than 100 nM; in test [3] it was 1250 to 2500 nM; in test [4], 1250 to 2500 nM.

For the compound `CC(=O)N1CCC(N2CC3(C2)C(=O)N(C)c2cnc4[nH]c(-c5ccc(CN6CCC(S(C)(=O)=O)CC6)cc5)c(-c5ccccc5)c4c23)CC1` [Example 3], the IC50 is 100 to 500 nM in test [1], 100 to 500 nM in test [2], greater than 2500 nM in test [3] and greater than 2500 nM in test [4].

As to `CN1C(=O)C2(CCN(CCC#N)CC2)c2c1cnc1[nH]c(-c3ccc(CN4CCC(S(C)(=O)=O)CC4)cc3)c(-c3ccccc3)c21` [Example 4, 3-(6-Methyl-2-((4(4-(methylsulfonyl)piperidin-1-yl)methyl)phenyl)-7-oxo-1-phenyl-6,7-dihydro-3H-spiro[dipyrrolo[2,3-b:3′,2′-d]pyridine-8,4′-piperidin]-1′-yl)propanenitrile trifluoroacetate salt], the IC50 in test [1] was no more than 100 nM; in test [2], no more than 100 nM; in test [3] it was 500 to 1250 nM; in test [4], 500 to 1250 nM.

For `CN1C(=O)C2(CCN(CCC#N)CC2)c2c1cnc1[nH]c(-c3ccc(CN4CCC(S(C)(=O)=O)CC4)cc3)c(-c3ccc4c(cnn4C)c3)c21` [Example 5, 3-(6-Methyl-1-(1-methyl-1H-indazol-5-yl)-2-(4-((4-(methylsulfonyl)piperidin-1-yl)methyl)phenyl)-7-oxo-6,7-dihydro-3H-spiro[dipyrrolo[2,3-b:3′,2′-d]pyridine-8,4′-piperidin]-1′-yl)propanenitrile trifluoroacetate salt], the IC50 in test [1] was no more than 100 nM; in test [2], no more than 100 nM; in test [3], 500 to 1250 nM; in test [4], 500 to 1250 nM.

In the case of `CN1C(=O)C2(CCN(c3cnn(C4(CC#N)CCOCC4)c3)CC2)c2c1cnc1[nH]c(-c3cnn(C)c3)c(-c3ccccc3)c21` [Example 6, 2-(4-(4-(6-Methyl-2-(1-methyl-1H-pyrazol-4-yl)-7-oxo-1-phenyl-6,7-dihydro-3H-spiro[dipyrrolo[2,3-b:3′,2′-d]pyridine-8,4′-piperidin]-1′-yl)-1H-pyrazol-1-yl)tetrahydro-2H-pyran-4-yl)acetonitrile trifluoroacetate salt], the IC50 in test [1] is no more than 100 nM; in test [2], no more than 100 nM; in test [3], greater than 2500 nM; in test [4], greater than 2500 nM.

Consider `[2H]C([2H])([2H])n1cc(-c2[nH]c3ncc4c(c3c2-c2ccc3c(cnn3C)c2)C2(CCN(CCC#N)CC2)C(=O)N4C)cn1` [Example 7, 3-(6-Methyl-1-(1-methyl-1H-indazol-5-yl)-2-(1-(methyl-d3)-1H-pyrazol-4-yl)-7-oxo-6,7-dihydro-3H-spiro[dipyrrolo[2,3-b:3′,2′-d]pyridine-8,4′-piperidin]-1′-yl)propanenitrile], for which the IC50 in test [1] was no more than 100 nM; in test [2], no more than 100 nM; in test [3], 1250 to 2500 nM; in test [4], 1250 to 2500 nM.

Turning to `CN1C(=O)C2(CCCC2)c2c1cnc1[nH]c(-c3cnn(Cc4ccncc4)c3)c(-c3ccc4c(cnn4C)c3)c21` [Example 8, 6′-Methyl-1′-(1-methyl-1H-indazol-5-yl)-2′-(1-(pyridin-4-ylmethyl)-1H-pyrazol-4-yl)-3′,6′-dihydro-7′H-spiro[cyclopentane-1,8′-dipyrrolo[2,3-b:3′,2′-d]pyridin]-7′-one trifluoroacetate salt], the IC50 is no more than 100 nM in test [1], no more than 100 nM in test [2], greater than 2500 nM in test [3] and 1250 to 2500 nM in test [4].

`CN1C(=O)C2(CCCC2)c2c1cnc1[nH]c(C3CC3)c(-c3ccc4c(cnn4C)c3)c21` [Example 9, 2′-Cyclopropyl-6′-methyl-1′-(1-methyl-1H-indazol-5-yl)-3′,6′-dihydro-7′H-spiro[cyclopentane-1,8′-dipyrrolo[2,3-b:3′,2′-d]pyridin]-7′-one, trifluoroacetate salt]: the IC50 in test [1] is 100 to 500 nM; in test [2], 100 to 500 nM; in test [3] it was greater than 2500 nM; in test [4] it was greater than 2500 nM.
